{"source": "patent US10131679B2", "about": "“Substituted dihydropyrrolopyrazole compound” (UBE INDUSTRIES, LTD., priority 2014, dated 2018)", "note": "pIC50: −log10 of the molar value."}
{"tested_on": "Human keratinocytes (NHEK-Neo Pooled)", "assay": "Human keratinocyte growth inhibition assay", "format": "cell-based", "details": "48 h, culture for 2 days, Cell Counting Kit-8", "protocol": "Human Keratinocyte Growth Inhibition Assay\nThe measurement of a human keratinocyte growth inhibitory effect was carried out by modifying the method of Schafer et al. (British Journal of Pharmacology, 159, 842 (2011)).\nHuman keratinocytes (NHEK-Neo Pooled, manufactured by Lonza Group AG, Cat. No. 00192906) were cultured in KGM-Gold Bullet Kit (manufactured by Lonza Group AG, Cat. No. 00192060) and inoculated at 2.0×10^3 cells/well to a 96-well plate. After overnight culture in a carbon dioxide incubator, a test compound dissolved in DMSO (final DMSO concentration: 0.1%) was added and left standing in a carbon dioxide incubator. After culture for 2 days, the absorbance thereof was measured by using Cell Counting Kit-8 (343-07623 manufactured by Dojindo Laboratories)).\nThe rate of inhibition of cell growth at each concentration was calculated from the test compound concentration and the absorbance of Cell Counting Kit-8, and the concentration of the test compound necessary for inhibiting 50% of cell growth (IC50 value) was calculated by using EXSUS (version 8.0.0 or version 8.0.1, manufactured by CAC Exicare Corp.)."}
{"molecule": "CC(C)(CO)C(NC(=O)N1Cc2c(NC(=O)C3([Si](C)(C)C)CCC3)n[nH]c2C1(C)C)c1ccccc1", "note": "(racemic) [IV-354, N-(3-Hydroxy-2,2-dimethyl-1-phenylpropyl)-6,6-dimethyl-3-[1-(trimethylsilyl)cyclobutanecarboxamido]-4,6-dihydropyrrolo[3,4-c]pyrazole-5(1H)-carboxamide]", "pIC50": "≥ 6.30"}
{"molecule": "CCOC[C@@H](NC(=O)N1Cc2c(NC(=O)C3([Si](C)(C)C)CCC3)n[nH]c2C1(C)C)c1ccccc1", "note": "[IV-139, (S)—N-(2-Ethoxy-1-phenylethyl)-6,6-dimethyl-3-[1-(trimethylsilyl)cyclobutanecarboxamido]-4,6-dihydropyrrolo[3,4-c]pyrazole-5(1H)-carboxamide]", "pIC50": "≥ 6.30"}
{"molecule": "CC(C)(O)C[C@@H](NC(=O)N1Cc2c(NC(=O)C3([Si](C)(C)C)CCC3)n[nH]c2C1(C)C)c1ccccc1", "note": "[IV-299, (R)—N-(3-Hydroxy-3-methyl-1-phenylbutyl)-6,6-dimethyl-3-[1-(trimethylsilyl)cyclobutanecarboxamido]-4,6-dihydropyrrolo[3,4-c]pyrazole-5(1H)-carboxamide]", "pIC50": "≥ 6.30"}
{"molecule": "CO[C@@H](C(=O)N1Cc2c(NC(=O)C3([Si](C)(C)C)CCC3)n[nH]c2C1(C)C)c1ccccc1", "note": "[IV-1175, (R)—N-[5-(2-Methoxy-2-phenylacetyl)-6,6-dimethyl-1,4,5,6-tetrahydropyrrolo[3,4-c]pyrazol-3-yl]-1-(trimethylsilyl)cyclobutanecarboxamide]", "pIC50": "≥ 6.30"}
{"tested_on": "IL-17 production in human PBMC-derived T cells", "assay": "Human PBMC various-stimulant cocktail-induced IL-17 production inhibition test", "format": "cell-based", "details": "120 h; human T-cell suspension from PBMC, cocktail of various stimulants, incubation for 5 days, ELISA", "excerpt": "Human PBMC Various-Stimulant Cocktail-Induced IL-17 Production Inhibition Test\nPBMC was separated and collected by using Ficoll-Paque (17-1440-02 manufactured by GE Healthcare Japan Corp.) from blood collected from healthy human adult in the presence of heparin. The collected PBMC was further cultured in a flask for a certain time, and then, non-adherent cells in the supernatant were collected and used as a T-cell suspension. RPMI1640 medium (manufactured by GIBCO/Thermo Fisher Scientific, Inc., REF. 11875), which is containing 10% FBS (manufactured by GIBCO/Thermo Fisher Scientific, Inc., REF. 10082), 1% penicillin/streptomycin/amphotericin B (manufactured by GIBCO/Thermo Fisher Scientific, Inc., REF. 15240-096), 1% nonessential amino acids (manufactured by GIBCO/Thermo Fisher Scientific, Inc., REF. 11140-050), and 1% pyruvic acid (manufactured by GIBCO/Thermo Fisher Scientific, Inc., REF. 11140) and containing a test compound dissolved in DMSO, 2 μg/mL (final concentration) CD28 antibody (manufactured by BioLegend, Inc., Cat. No. 302914), 10 μg/mL (final concentration) human IFN-γ antibody (manufactured by BD Biosciences, Cat. No. 554698), 10 μg/mL (final concentration) human IL-4 antibody (manufactured by BD Biosciences, Cat. No. 554481), 20 ng/mL (final concentration) human IL-6 (manufactured by BioLegend, Inc., Cat. No. 570802), 10 ng/mL (final concentration) human IL-23 (manufactured by BioLegend, Inc., Cat. No. 574102), 10 ng/mL (final concentration) human IL-1(3 (manufactured by PeproTech Inc., Cat. No. 200-01B), and 10 ng/mL (final concentration) human TGF-13 (manufactured by BioLegend, Inc., Cat. No. 580702), was added at 100 μL/well to T cell Activation Plate Anti-Human CD3 96-well plate (manufactured by Corning Inc., REF. 354725). Subsequently, 100 μL of a T-cell suspension adjusted to 2×10^5 cells/mL was added to each well (final DMSO concentration: 0.1%). Only DMSO was added to wells in the absence of the test compound. After incubation for 5 days in a carbon dioxide incubator, the culture supernatant was collected and stored at −20° C. until IL-17 content measurement.\nIn the IL-17 content measurement in the culture supernatant, a sandwich ELISA kit (Quantikine Human IL-17, manufactured by R&D Systems, Inc.) was used. The IL-17 content of each sample was calculated from the calibration curve of Standard IL-17 included in the kit. When the amount of IL-17 produced by the cocktail of various stimulants in the case of the addition of only DMSO was defined as 100%, the rate of inhibition of IL-17 production at each concentration of the test compound was calculated. The concentration of the test compound necessary for inhibiting 50% of IL-17 production (IC50 value) was calculated from the concentration of the added test compound and the rate of inhibition of IL-17 production by the test compound by using EXSUS (version 8.0.0 or version 8.0.1, manufactured by CAC Exicare Corp.)."}
{"molecule": "CC(C)(CO)C(NC(=O)N1Cc2c(NC(=O)C3([Si](C)(C)C)CCC3)n[nH]c2C1(C)C)c1ccccc1", "note": "(racemic) [IV-354, N-(3-Hydroxy-2,2-dimethyl-1-phenylpropyl)-6,6-dimethyl-3-[1-(trimethylsilyl)cyclobutanecarboxamido]-4,6-dihydropyrrolo[3,4-c]pyrazole-5(1H)-carboxamide]", "pIC50": "≥ 7.30"}
{"molecule": "CC(C)(CO)C(NC(=O)N1Cc2c(NC(=O)C3([Si](C)(C)C)CCC3)n[nH]c2C1(C)C)c1ccccc1", "note": "(single isomer, unassigned; (-)) [IV-673, (−)-N-(3-Hydroxy-2,2-dimethyl-1-phenylpropyl)-6,6-dimethyl-3-[1-(trimethylsilyl)cyclobutanecarboxamido]-4,6-dihydropyrrolo[3,4-c]pyrazole-5(1H)-carboxamide]", "pIC50": "≥ 7.30"}
{"molecule": "CC(C)(O)C[C@@H](NC(=O)N1Cc2c(NC(=O)C3([Si](C)(C)C)CCC3)n[nH]c2C1(C)C)c1ccccc1", "note": "[IV-299, (R)—N-(3-Hydroxy-3-methyl-1-phenylbutyl)-6,6-dimethyl-3-[1-(trimethylsilyl)cyclobutanecarboxamido]-4,6-dihydropyrrolo[3,4-c]pyrazole-5(1H)-carboxamide]", "pIC50": "≥ 7.30"}
{"molecule": "CC1(C)c2[nH]nc(NC(=O)C3([Si](C)(C)C)CCC3)c2CN1C(=O)NC(c1ccccc1)C1(CO)CCC1", "note": "(stereo not drawn) [IV-718, N-{[1-(Hydroxymethyl)cyclobutyl](phenyl)methyl}-6,6-dimethyl-3-[1-(trimethylsilyl)cyclobutanecarboxamido]-4,6-dihydropyrrolo[3,4-c]pyrazole-5(1H)-carboxamide]", "pIC50": "≥ 7.30"}
{"molecule": "CC1(C)c2[nH]nc(NC(=O)C3([Si](C)(C)C)CCC3)c2CN1C(=O)N[C@H](CC1(O)CC1)c1ccccc1", "note": "[IV-743, (R)—N-[2-(1-Hydroxycyclopropyl)-1-phenylethyl]-6,6-dimethyl-3-[1-(trimethylsilyl)cyclobutanecarboxamido]-4,6-dihydropyrrolo[3,4-c]pyrazole-5(1H)-carboxamide]", "pIC50": "≥ 7.30"}
{"molecule": "CC(C)(O)C[C@@H](NC(=O)N1Cc2c(NC(=O)C3([Si](C)(C)C)CCC3)n[nH]c2C1(C)C)c1cccc(F)c1", "note": "[IV-911, (R)—N-[1-(3-Fluorophenyl)-3-hydroxy-3-methylbutyl]-6,6-dimethyl-3-[1-(trimethylsilyl)cyclobutanecarboxamido]-4,6-dihydropyrrolo[3,4-c]pyrazole-5(1H)-carboxamide]", "pIC50": "≥ 7.30"}
{"molecule": "CC(C)(CO)C(NC(=O)N1Cc2c(NC(=O)C3([Si](C)(C)C)CCC3)n[nH]c2C1(C)C)c1cccc(F)c1", "note": "(stereo not drawn) [IV-918, N-[1-(3-Fluorophenyl)-3-hydroxy-2,2-dimethylpropyl]-6,6-dimethyl-3-[1-(trimethylsilyl)cyclobutanecarboxamido]-4,6-dihydropyrrolo[3,4-c]pyrazole-5(1H)-carboxamide]", "pIC50": "≥ 7.30"}
{"molecule": "CC(C)(O)C[C@@H](NC(=O)N1Cc2c(NC(=O)C3([Si](C)(C)C)CCC3)n[nH]c2C1(C)C)c1ccc(F)cc1", "note": "[IV-939, (R)—N-[1-(4-Fluorophenyl)-3-hydroxy-3-methylbutyl]-6,6-dimethyl-3-[1-(trimethylsilyl)cyclobutanecarboxamido]-4,6-dihydropyrrolo[3,4-c]pyrazole-5(1H)-carboxamide]", "pIC50": "≥ 7.30"}
{"molecule": "CC(C)(CO)C(NC(=O)N1Cc2c(NC(=O)C3([Si](C)(C)C)CCC3)n[nH]c2C1(C)C)c1ccc(F)cc1", "note": "(stereo not drawn) [IV-946, N-[1-(4-Fluorophenyl)-3-hydroxy-2,2-dimethylpropyl]-6,6-dimethyl-3-[1-(trimethylsilyl)cyclobutanecarboxamido]-4,6-dihydropyrrolo[3,4-c]pyrazole-5(1H)-carboxamide]", "pIC50": "≥ 7.30"}
{"molecule": "CO[C@@H](C(=O)N1Cc2c(NC(=O)C3([Si](C)(C)C)CCC3)n[nH]c2C1(C)C)c1ccccc1", "note": "[IV-1175, (R)—N-[5-(2-Methoxy-2-phenylacetyl)-6,6-dimethyl-1,4,5,6-tetrahydropyrrolo[3,4-c]pyrazol-3-yl]-1-(trimethylsilyl)cyclobutanecarboxamide]", "pIC50": "≥ 7.30"}
{"molecule": "CC1(C)c2[nH]nc(NC(=O)C3([Si](C)(C)C)CCC3)c2CN1C(=O)[C@H](OC(F)(F)F)c1ccccc1", "note": "[IV-1184, (R)—N-{6,6-Dimethyl-5-[2-phenyl-2-(trifluoromethoxy)acetyl]-1,4,5,6-tetrahydropyrrolo[3,4-c]pyrazol-3-yl}-1-(trimethylsilyl)cyclobutanecarboxamide]", "pIC50": "≥ 7.30"}
{"molecule": "CCCO[C@@H](C(=O)N1Cc2c(NC(=O)C3([Si](C)(C)C)CCC3)n[nH]c2C1(C)C)c1ccccc1", "note": "[IV-1196, (R)—N-[6,6-Dimethyl-5-(2-phenyl-2-propoxyacetyl)-1,4,5,6-tetrahydropyrrolo[3,4-c]pyrazol-3-yl]-1-(trimethylsilyl)cyclobutanecarboxamide]", "pIC50": "≥ 7.30"}
{"molecule": "CC(C)O[C@@H](C(=O)N1Cc2c(NC(=O)C3([Si](C)(C)C)CCC3)n[nH]c2C1(C)C)c1ccccc1", "note": "[IV-1204, (R)—N-[5-(2-Isopropoxy-2-phenylacetyl)-6,6-dimethyl-1,4,5,6-tetrahydropyrrolo[3,4-c]pyrazol-3-yl]-1-(trimethylsilyl)cyclobutanecarboxamide]", "pIC50": "≥ 7.30"}
{"molecule": "CC1(C)c2[nH]nc(NC(=O)C3([Si](C)(C)C)CCC3)c2CN1C(=O)[C@H](OC1CC1)c1ccccc1", "note": "[IV-1208, (R)—N-[5-(2-Cyclopropoxy-2-phenylacetyl)-6,6-dimethyl-1,4,5,6-tetrahydropyrrolo[3,4-c]pyrazol-3-yl]-1-(trimethylsilyl)cyclobutanecarboxamide]", "pIC50": "≥ 7.30"}
{"molecule": "CO[C@@H](C(=O)N1Cc2c(NC(=O)C3([Si](C)(C)C)CCC3)n[nH]c2C1(C)C)c1ccccc1F", "note": "[IV-1383, (R)—N-{5-[2-(2-Fluorophenyl)-2-methoxyacetyl]-6,6-dimethyl-1,4,5,6-tetrahydropyrrolo[3,4-c]pyrazol-3-yl}-1-(trimethylsilyl)cyclobutanecarboxamide]", "pIC50": "≥ 7.30"}
{"molecule": "COC(C(=O)N1Cc2c(NC(=O)C3([Si](C)(C)C)CCC3)n[nH]c2C1(C)C)c1cccc(F)c1", "note": "(stereo not drawn) [IV-1404, N-{5-[2-(3-Fluorophenyl)-2-methoxyacetyl]-6,6-dimethyl-1,4,5,6-tetrahydropyrrolo[3,4-c]pyrazol-3-yl}-1-(trimethylsilyl)cyclobutanecarboxamide]", "pIC50": "≥ 7.30"}
{"molecule": "COC(C(=O)N1Cc2c(NC(=O)C3([Si](C)(C)C)CCC3)n[nH]c2C1(C)C)c1cccs1", "note": "(stereo not drawn) [IV-1546, N-{5-[2-Methoxy-2-(thiophen-2-yl)acetyl]-6,6-dimethyl-1,4,5,6-tetrahydropyrrolo[3,4-c]pyrazol-3-yl}-1-(trimethylsilyl)cyclobutanecarboxamide]", "pIC50": "≥ 7.30"}
